Measurements from ChEMBL document CHEMBL1155582, “Bioactive constituents of Thuja occidentalis” (J Nat Prod, 2000).
Active and inactive are the calls of the source. No cut-off for these calls is given here.

What was measured:
[1] = (§1) Cytotoxicity against mouse JB6 cells by trypan blue exclusion test; assay type: functional, cell-based
[2] = Inhibition of 12-O-tetradecanoylphorbol 13-acetate-induced transformation of mouse JB6 cells after 14 days by soft agar transformation assay; assay type: functional
KB = assay: Cytotoxicity against human KB cells; assay type: functional, cell-based
[3] = biological target: T1, Ornithine decarboxylase (Mus musculus) (UniProt P00860); assay: Inhibition of 12-O-tetradecanoylphorbol 13-acetate-induced ornithine decarboxylase activity in mouse ME308 cells; assay type: cell-based
T1 sequence (whole entry): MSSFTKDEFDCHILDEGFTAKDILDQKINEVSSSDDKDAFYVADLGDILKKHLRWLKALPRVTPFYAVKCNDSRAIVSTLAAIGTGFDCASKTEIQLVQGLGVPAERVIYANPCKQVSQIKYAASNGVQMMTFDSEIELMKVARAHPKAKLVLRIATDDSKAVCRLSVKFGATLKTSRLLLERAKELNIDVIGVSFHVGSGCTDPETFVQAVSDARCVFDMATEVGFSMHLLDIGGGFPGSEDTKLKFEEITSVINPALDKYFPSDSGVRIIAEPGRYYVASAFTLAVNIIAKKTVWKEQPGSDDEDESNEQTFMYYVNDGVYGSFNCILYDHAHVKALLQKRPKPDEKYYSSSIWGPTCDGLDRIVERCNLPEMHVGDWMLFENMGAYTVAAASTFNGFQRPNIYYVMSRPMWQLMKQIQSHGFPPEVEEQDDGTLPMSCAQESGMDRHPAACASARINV

JB6 = assay: as §1; assay type: functional, cell-based

| Activity [3] [µM] | SMILES | IC50 [1] [µM] | Activity [2] [µM] | IC50 (KB) [µM] | Activity (JB6) |
| --- | --- | --- | --- | --- | --- |
| 0.98 | C=C[C@@]1(C)CCC2=C(C1)C(=O)C[C@H]1[C@](C)(C(=O)O)CCC[C@]21C | > 60 | 12.6 | > 60 |  |
| 0.5 | C=C[C@]1(C)C=C2C(=O)C[C@@H]3[C@](C)(CCC[C@@]3(C)C(=O)O)[C@H]2CC1 | > 60 | 11.7 | > 60 |  |
| 0.86 | C=C[C@@]1(C)CC[C@H]2C(=CC[C@@H]3[C@]2(C)CCC[C@@]3(C)C(=O)O)C1 [ISOPIMARIC ACID] | > 60 | 13.2 | > 60 |  |

The remaining lines, values behind:

| SMILES | Activity [3] [µM] | IC50 [1] [µM] | Activity [2] [µM] | IC50 (KB) [µM] | Activity (JB6) |
| --- | --- | --- | --- | --- | --- |
| COc1cc(C[C@H]2C(=O)OC[C@@H]2Cc2ccc3c(c2)OCO3)cc(OC)c1OC | 6.5 |  | 3.75 |  | Active |
| COc1cc([C@@H]2c3cc4c(cc3C[C@H]3COC(=O)[C@@H]32)OCO4)cc(OC)c1OC [DESOXYPODOPHYLLOTOXIN] | < 0.08 |  | 0.004 |  | Active |
| COc1cc([C@H]2c3cc4c(cc3C[C@H]3COC(=O)[C@H]32)OCO4)cc(OC)c1OC [ISOPICRODEOXYPODOPHYLLOTOXIN] | 0.55 |  | 0.18 |  | Active |
| CC1=C(/C=C/C(C)=C/C=C/C(C)=C\C(=O)O)C(C)(C)CCC1 [ISOTRETINOIN] | 0.6 |  | 0.021 |  |  |
